# Reference: BindingDB's records for doi:10.1021/jm020122x (The Royal Danish School of Pharmacy, 2002)
# Target: Metabotropic glutamate receptor 2 (Rattus norvegicus) (UniProt P31421)
# Test: Compound was evaluated for the inhibitory activity against cloned Metabotropic glutamate receptor 2
# Metabotropic glutamate receptor 2 (Rattus norvegicus), sequence (P31421 whole entry, looked up): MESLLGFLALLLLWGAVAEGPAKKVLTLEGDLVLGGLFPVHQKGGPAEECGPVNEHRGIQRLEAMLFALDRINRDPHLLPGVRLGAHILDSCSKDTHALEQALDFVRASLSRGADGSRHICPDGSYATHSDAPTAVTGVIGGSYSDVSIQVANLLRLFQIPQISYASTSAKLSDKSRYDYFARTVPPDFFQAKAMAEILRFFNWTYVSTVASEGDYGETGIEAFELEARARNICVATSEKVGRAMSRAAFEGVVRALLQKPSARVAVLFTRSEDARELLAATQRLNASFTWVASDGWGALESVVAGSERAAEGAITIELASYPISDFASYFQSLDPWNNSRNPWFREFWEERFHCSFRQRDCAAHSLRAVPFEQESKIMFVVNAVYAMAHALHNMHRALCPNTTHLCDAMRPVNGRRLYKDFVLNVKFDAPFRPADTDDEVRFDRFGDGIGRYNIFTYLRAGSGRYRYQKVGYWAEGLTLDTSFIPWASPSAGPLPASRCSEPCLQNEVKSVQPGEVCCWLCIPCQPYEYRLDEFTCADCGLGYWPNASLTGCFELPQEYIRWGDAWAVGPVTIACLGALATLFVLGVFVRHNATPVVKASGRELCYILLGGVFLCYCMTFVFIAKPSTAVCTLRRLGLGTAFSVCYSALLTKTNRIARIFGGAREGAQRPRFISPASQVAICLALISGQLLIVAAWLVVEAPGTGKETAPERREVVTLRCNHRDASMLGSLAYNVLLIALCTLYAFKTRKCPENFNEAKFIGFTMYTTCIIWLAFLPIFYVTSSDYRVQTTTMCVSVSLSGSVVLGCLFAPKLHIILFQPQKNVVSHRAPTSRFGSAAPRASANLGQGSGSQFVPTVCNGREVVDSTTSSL
row,Compound,EC50
1,Cc1o[nH]c(=O)c1CC[C@H](N)C(=O)O [2-Amino-4-(3-hydroxy-5-methyl-isoxazol-4-yl)-butyric acid(S-homo-AMPA)],> 1 mM
2,Cc1o[nH]c(=O)c1CC[C@@H](N)C(=O)O [(R)-2-Amino-4-(3-hydroxy-5-methyl-isoxazol-4-yl)-butyric acid],> 1 mM
